The term IC50 denotes the concentration needed to halve the response being measured. A higher IC50 goes with weaker potency. As a reminder, the EC50 is the concentration that produces a half-maximal response. High values mean weaker potency, low ones greater potency.

Where a name gives a salt, the structure may show the parent alone.

Results on two molecules are retold here after article PMC8464850, “Sulfonium Ligands of the α7 nAChR” (Molecules, 2021).

One assay has as its target T1, α3β4 nAChR (Homo sapiens, UniProt P30926+P32297).
T1 construct: expressed in transfected cells; host or cells: Xenopus laevis oocytes (injected RNA)
As to the kind of experiment: Inhibition of α3β4 100 µM ACh-evoked peak currents. The assay is classed as cell-based. The settings on record: co-application with 100 µM ACh, peak currents. Here is the method: Although none of the other sulfonium compounds activated neuronal heteromeric receptors, several of them produced inhibition of ACh-evoked responses. Shown in Figure 7A are concentration-response studies for the compounds that were active antagonists of α3β4 nAChR (Table 3). Some compounds were also tested as antagonists of α4β2 subtypes formed with concatamers (Figure 7B).
Figure 7 Inhibition of heteromeric nAChR by sulfonium compounds. (A) Inhibition of α3β4 100 µM ACh-evoked peak currents by the co-application of the sulfonium compounds. Data are the averaged of six to eight oocytes (±SEM). To confirm the stability of the ACh responses, applications of ACh plus the sulfonium compounds were alternated with applications of ACh alone. (B) Inhibition of ACh control peak-current responses of α4-containing nAChR formed with concatamers by 100 µM of the sulfonium compounds indicated. Data are the average of six to eight oocytes (±SEM).
Experiments were conducted using OpusXpress 6000A (Molecular Devices, Union City, CA, USA). Both the voltage and current electrodes were filled with 3 M KCl. Oocytes were voltage-clamped at −60 mV at room temperature (24 °C). The oocytes were bath-perfused with Ringer’s solution (115 mM NaCl, 2.5 mM KCl, 1.8 mM CaCl2, 10 mM HEPES, and 1 μM atropine, pH 7.2) at 2 mL/min for α7 receptors, or 4 mL/min for heteromeric nAChR. To evaluate the effects of experimental compounds, responses were compared to control ACh-evoked responses, defined as the average of two initial applications of ACh made before test applications. ACh control concentrations were 60 µM for α7 receptors; 100 µM for α4(3)β2(2) and α3β4 receptors; 30 µM for α4β2α6β2β3 and muscle-type (αβ1εδ) receptors; and 10 µM for α4(3)β2(2) and α4(2)β2(2)α5 receptors.
Solutions were applied from 96-well plates via disposable tips. Drug applications were 12 s in duration, followed by 181 s washout periods for α7 receptors, or 6 s in duration followed by 301 s washout periods for heteromeric nAChR. The responses were calculated as both peak current amplitudes and net charge, as previously described. Data were collected at 50 Hz, filtered at 20 Hz for α7 receptors or filtered at 5 Hz for heteromeric nAChR, and analyzed by Clampfit (Molecular Devices, San Jose, CA, USA) and Excel (Microsoft, Redmond, WA, USA). Data were expressed as means ± SEM from at least four oocytes for each experiment and plotted with Kaleidagraph 4.5.2 (Abelbeck Software, Reading, PA, USA). Multi-cell averages were calculated for comparisons of complex responses. Averages of the normalized data were calculated for each of the 10,322 points in each of the 206.44 s traces (acquired at 50 Hz), as well as the standard errors for those averages.

In the next assay the target is T2, α4(2)β2(3) (Homo sapiens, UniProt P17787+P43681).
T2 construct: expressed in transfected cells; host or cells: Xenopus laevis oocytes (injected RNA)
Kind of assay: Activation of heteromeric nAChR by S1: α4(2)β2(3). It is filed as cell-based. The source says:
Concatamers were used in order to obtain heteromeric receptors with known subunit composition. The β2-6-α4 concatamer was co-expressed with monomeric α4, β2, or α5 to obtain receptors with the composition α4(3)β2(2), α4(2)β2(3), or α4(2)β2(2)α5, respectively. A concatamer of five linked subunits was used to obtain the β3α4 β2α6β2 receptors. The α3β4 receptors were formed from the co-expression of α3 and β4 subunit monomers at equal ratios. Note that the data were initially measured relative to internal ACh control responses for each oocyte (Methods). Responses were subsequently adjusted for the relative values of the ACh controls and the ACh maximum responses for each of the various subtypes, determined in previous experiments.
Figure 6 Activation of heteromeric neuronal nAChR by S1. […] Data are the average peak currents (n = 6–8 oocytes ± SEM), measured relative to initial ACh control responses for each oocyte (concentrations listed in Methods). Responses were subsequently adjusted for the relative values of the ACh controls and the ACh maximum responses for each of the various subtypes, determined in previous experiments. […]
Solutions were applied from 96-well plates via disposable tips. […] The responses were calculated as both peak current amplitudes and net charge, as previously described. […] Multi-cell averages were calculated for comparisons of complex responses. […]

T2 sequence (P17787 26-502): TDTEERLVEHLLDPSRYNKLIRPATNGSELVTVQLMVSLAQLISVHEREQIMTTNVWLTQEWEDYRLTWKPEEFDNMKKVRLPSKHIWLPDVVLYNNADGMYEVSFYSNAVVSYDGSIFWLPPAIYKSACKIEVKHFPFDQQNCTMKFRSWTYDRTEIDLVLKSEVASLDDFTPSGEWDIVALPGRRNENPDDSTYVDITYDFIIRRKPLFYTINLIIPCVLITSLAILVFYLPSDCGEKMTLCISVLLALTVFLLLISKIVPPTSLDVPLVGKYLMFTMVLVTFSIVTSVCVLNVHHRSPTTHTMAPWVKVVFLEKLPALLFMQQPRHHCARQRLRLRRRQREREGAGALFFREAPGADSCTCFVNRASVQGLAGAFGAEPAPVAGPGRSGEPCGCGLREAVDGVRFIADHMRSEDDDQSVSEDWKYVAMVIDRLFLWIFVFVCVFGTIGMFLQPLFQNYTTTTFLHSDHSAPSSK
T2 sequence (P43681 29-627 limits assumed): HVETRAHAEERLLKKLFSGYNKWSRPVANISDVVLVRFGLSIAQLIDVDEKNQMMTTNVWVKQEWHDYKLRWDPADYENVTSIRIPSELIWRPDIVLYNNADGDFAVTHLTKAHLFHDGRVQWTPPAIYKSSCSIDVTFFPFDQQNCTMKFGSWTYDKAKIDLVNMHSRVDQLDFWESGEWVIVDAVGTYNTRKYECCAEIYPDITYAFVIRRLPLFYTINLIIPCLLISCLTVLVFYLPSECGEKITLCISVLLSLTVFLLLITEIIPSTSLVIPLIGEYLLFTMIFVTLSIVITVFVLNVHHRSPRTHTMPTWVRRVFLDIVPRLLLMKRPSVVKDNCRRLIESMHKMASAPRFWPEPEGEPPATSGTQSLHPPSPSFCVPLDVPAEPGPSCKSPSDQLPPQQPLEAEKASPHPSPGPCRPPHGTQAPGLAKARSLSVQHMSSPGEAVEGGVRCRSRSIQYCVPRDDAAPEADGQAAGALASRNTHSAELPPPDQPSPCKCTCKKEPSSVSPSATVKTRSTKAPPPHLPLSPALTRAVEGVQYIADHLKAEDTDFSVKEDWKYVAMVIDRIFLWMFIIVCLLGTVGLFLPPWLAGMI
T2 sequence (P17787 26-502): as the sequence (P17787 26-502) above
T1 sequence (P32297 32-505): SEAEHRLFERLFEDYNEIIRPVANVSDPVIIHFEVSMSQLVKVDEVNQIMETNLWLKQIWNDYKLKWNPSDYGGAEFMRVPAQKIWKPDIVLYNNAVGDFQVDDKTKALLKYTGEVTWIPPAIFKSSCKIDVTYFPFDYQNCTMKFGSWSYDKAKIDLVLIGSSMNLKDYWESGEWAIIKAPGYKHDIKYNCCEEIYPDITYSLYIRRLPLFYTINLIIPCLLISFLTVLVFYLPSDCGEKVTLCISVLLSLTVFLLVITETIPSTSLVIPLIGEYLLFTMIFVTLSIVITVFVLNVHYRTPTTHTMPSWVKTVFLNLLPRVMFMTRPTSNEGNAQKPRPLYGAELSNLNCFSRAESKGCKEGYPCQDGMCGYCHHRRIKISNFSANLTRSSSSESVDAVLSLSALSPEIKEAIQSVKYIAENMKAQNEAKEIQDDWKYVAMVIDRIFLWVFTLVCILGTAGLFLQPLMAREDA
T1 sequence (P30926 22-498): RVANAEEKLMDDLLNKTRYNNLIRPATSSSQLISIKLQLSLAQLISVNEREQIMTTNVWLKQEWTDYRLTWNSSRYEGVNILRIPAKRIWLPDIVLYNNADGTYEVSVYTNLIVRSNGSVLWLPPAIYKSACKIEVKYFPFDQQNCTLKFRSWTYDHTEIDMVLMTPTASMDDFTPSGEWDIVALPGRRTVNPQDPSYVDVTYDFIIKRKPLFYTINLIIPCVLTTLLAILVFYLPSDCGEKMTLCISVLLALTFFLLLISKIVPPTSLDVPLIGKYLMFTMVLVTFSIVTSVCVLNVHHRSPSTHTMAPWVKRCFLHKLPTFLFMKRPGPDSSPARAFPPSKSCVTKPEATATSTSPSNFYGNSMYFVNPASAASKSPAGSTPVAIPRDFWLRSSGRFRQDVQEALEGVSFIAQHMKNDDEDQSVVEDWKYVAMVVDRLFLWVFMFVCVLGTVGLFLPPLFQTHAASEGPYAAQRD

As for `C[S+](C)c1ccc(O)cc1` [Compound S9, (4-hydroxyphenyl)dimethylsulfonium methyl sulfate], on α3β4 nAChR, the IC50 worked out at 124 ± 22 µM. As for `C[S+](C)C.[I-]` [Compound S1, trimethylsulfonium iodide], at α4(2)β2(3) (peak currents relative to ACh maximum), the “IMax (S1 Activation)” value came out at 0.89 ± 0.44. In addition, the EC50 on α4(2)β2(3) (peak currents, unit inferred) was found to be 1060 ± 1240 µM.
